Reference: ChEMBL document CHEMBL1151118, “Plant antimutagenic agents, 2. Flavonoids” (J Nat Prod, 1988)

How the values were obtained:
[1] = tested on: Salmonella typhimurium; assay: Antimutagenic activity in Salmonella Typhimurium […] assessed as inhibition of acetylaminofluorene-induced mutation at 150 ug/plate after 72 hrs in presence of Ames S-9 fraction; format: functional, Salmonella enterica subsp. enterica serovar Typhimurium
[2] = tested on: Salmonella typhimurium; assay: Antimutagenic activity in Salmonella Typhimurium […] assessed as inhibition of acetylaminofluorene-induced mutation at 300 ug/plate after 72 hrs in presence of Ames S-9 fraction; format: functional, Salmonella enterica subsp. enterica serovar Typhimurium
[3] = tested on: Salmonella typhimurium; assay: Antimutagenic activity in Salmonella Typhimurium […] assessed as inhibition of benzo[a]pyrene-induced mutation at 300 ug/plate after 72 hrs in presence of Ames S-9 fraction; format: functional, Salmonella enterica subsp. enterica serovar Typhimurium
[4] = Toxicity in Salmonella Typhimurium […] at 300 ug/plate after 72 hrs by Ames assay in presence of Ames S-9 fraction; format: organism-based; conditions: salmonella enterica subsp. enterica serovar typhimurium, Salmonella Typhimurium T98 with S-9 fraction
[5] = tested on: Salmonella typhimurium; assay: Antimutagenic activity in Salmonella Typhimurium […] assessed as inhibition of benzo[a]pyrene-induced mutation at 600 ug/plate after 72 hrs in presence of Ames S-9 fraction; format: functional, Salmonella enterica subsp. enterica serovar Typhimurium
[6] = Toxicity in Salmonella Typhimurium […] at 600 ug/plate after 72 hrs by Ames assay in presence of Ames S-9 fraction; format: organism-based; conditions: salmonella enterica subsp. enterica serovar typhimurium, Salmonella Typhimurium T98 with S-9 fraction
[7] = tested on: Salmonella typhimurium; assay: Antimutagenic activity in Salmonella Typhimurium […] assessed as inhibition of acetylaminofluorene-induced mutation at 600 ug/plate after 72 hrs in presence of Ames S-9 fraction; format: functional, Salmonella enterica subsp. enterica serovar Typhimurium
[8] = tested on: Salmonella typhimurium; assay: Antimutagenic activity in Salmonella Typhimurium […] assessed as inhibition of 2-nitroflorene-induced mutation at 600 ug/plate after 72 hrs; format: functional, Salmonella enterica subsp. enterica serovar Typhimurium
[9] = tested on: Salmonella typhimurium; assay: Antimutagenic activity in Salmonella Typhimurium […] assessed as inhibition of benzo[a]pyrene-induced mutation at 150 ug/plate after 72 hrs in presence of Ames S-9 fraction; format: functional, Salmonella enterica subsp. enterica serovar Typhimurium
[10] = tested on: Salmonella typhimurium; assay: Antimutagenic activity in Salmonella Typhimurium […] assessed as inhibition of 2-aminoanthracene-induced mutation at 150 ug/plate after 72 hrs in presence of Ames S-9 fraction; format: functional, Salmonella enterica subsp. enterica serovar Typhimurium
[11] = tested on: Salmonella typhimurium; assay: Antimutagenic activity in Salmonella Typhimurium […] assessed as inhibition of 2-aminoanthracene-induced mutation at 300 ug/plate after 72 hrs in presence of Ames S-9 fraction; format: functional, Salmonella enterica subsp. enterica serovar Typhimurium
[12] = tested on: Salmonella typhimurium; assay: Antimutagenic activity in Salmonella Typhimurium […] assessed as inhibition of 2-nitroflorene-induced mutation at 150 ug/plate after 72 hrs; format: functional, Salmonella enterica subsp. enterica serovar Typhimurium
[13] = tested on: Salmonella typhimurium; assay: Antimutagenic activity in Salmonella Typhimurium […] assessed as inhibition of 2-nitroflorene-induced mutation at 300 ug/plate after 72 hrs; format: functional, Salmonella enterica subsp. enterica serovar Typhimurium
[14] = tested on: Salmonella typhimurium; assay: Antimutagenic activity in Salmonella Typhimurium […] assessed as inhibition of 2-aminoanthracene-induced mutation at 600 ug/plate after 72 hrs in presence of Ames S-9 fraction; format: functional, Salmonella enterica subsp. enterica serovar Typhimurium
[15] = Toxicity in Salmonella Typhimurium […] at 150 ug/plate after 72 hrs by Ames assay in presence of Ames S-9 fraction; format: organism-based; conditions: salmonella enterica subsp. enterica serovar typhimurium, Salmonella Typhimurium T98 with S-9 fraction

O=c1c(O)c(-c2ccc(O)c(O)c2)oc2cc(O)cc(O)c12 [QUERCETIN]
inhibition (INH) [1]: 0% | inhibition (INH) [2]: 0% | inhibition (INH) [3]: 0% | inhibition at 72 h, 300 ug/plate [4]: 50% | inhibition (INH) [5]: 0% | inhibition at 72 h, 600 ug/plate [6]: 50% | inhibition (INH) [7]: 0% | inhibition (INH) [8]: 0% | inhibition (INH) [9]: 0% | inhibition (INH) [10]: 16% | inhibition (INH) [11]: 24% | inhibition (INH) [12]: 0% | inhibition (INH) [13]: 0% | inhibition (INH) [14]: 20%

O=c1c(O)c(-c2ccc(O)cc2O)oc2cc(O)cc(O)c12 [MORIN]
inhibition at 72 h, 300 ug/plate [4]: < 20% | inhibition at 72 h, 600 ug/plate [6]: < 30% | inhibition (INH) [14]: 0%

C=C[C@@](C)(/C=C/c1ccc(O)cc1)CCC=C(C)C [BAKUCHIOL]
inhibition (INH) [1]: 0% | inhibition (INH) [2]: 0% | inhibition (INH) [3]: 28% | inhibition at 72 h, 300 ug/plate [4]: < 20% | inhibition (INH) [5]: 43% | inhibition at 72 h, 600 ug/plate [6]: < 30% | inhibition (INH) [7]: 0% | inhibition (INH) [8]: 92% | inhibition (INH) [9]: 0% | inhibition (INH) [10]: 91% | inhibition (INH) [11]: 84% | inhibition (INH) [12]: 75% | inhibition at 72 h, 150 ug/plate [15]: < 20% | inhibition (INH) [13]: 79% | inhibition (INH) [14]: 81%

CC(C)=CCc1cc2c(cc1O)O[C@H](c1ccc(O)cc1)CC2=O [BAVACHIN]
inhibition (INH) [1]: 0% | inhibition (INH) [2]: 0% | inhibition (INH) [3]: 0% | inhibition at 72 h, 300 ug/plate [4]: 50% | inhibition (INH) [9]: 0% | inhibition (INH) [10]: 98% | inhibition (INH) [11]: 98% | inhibition (INH) [12]: 52% | inhibition at 72 h, 150 ug/plate [15]: < 20% | inhibition (INH) [13]: 72% | inhibition (INH) [14]: 62%

COc1ccc([C@@H]2CC(=O)c3c(O)cc(O[C@@H]4O[C@H](CO[C@@H]5O[C@@H](C)[C@H](O)[C@@H](O)[C@H]5O)[C@@H](O)[C@H](O)[C@H]4O)cc3O2)cc1O [HESPERIDIN]
inhibition at 72 h, 300 ug/plate [4]: < 20% | inhibition at 72 h, 600 ug/plate [6]: < 20% | inhibition (INH) [14]: 13%

O=c1cc(-c2ccc(O)cc2)oc2cc(O)cc(O)c12 [APIGENIN]
inhibition (INH) [1]: 0% | inhibition (INH) [2]: 14% | inhibition (INH) [3]: 64% | inhibition (INH) [5]: 75% | inhibition (INH) [7]: 0% | inhibition (INH) [8]: 88% | inhibition (INH) [9]: 67% | inhibition (INH) [10]: 0% | inhibition (INH) [11]: 0% | inhibition (INH) [12]: 60% | inhibition (INH) [13]: 70% | inhibition (INH) [14]: 10%

COc1ccc(-c2cc(=O)c3c(OC)c(OC)c(OC)c(OC)c3o2)cc1OC [NOBILETIN]
inhibition at 72 h, 300 ug/plate [4]: < 20% | inhibition at 72 h, 600 ug/plate [6]: < 20% | inhibition (INH) [14]: 43%

C[C@@H]1O[C@@H](O[C@H]2[C@H](Oc3cc(O)c4c(c3)O[C@H](c3ccc(O)cc3)CC4=O)O[C@H](CO)[C@@H](O)[C@@H]2O)[C@H](O)[C@H](O)[C@H]1O [NARINGIN]
inhibition at 72 h, 300 ug/plate [4]: < 30% | inhibition at 72 h, 600 ug/plate [6]: 50% | inhibition (INH) [14]: 38%

COc1ccc(-c2coc3cc(O)cc(O)c3c2=O)cc1 [BIOCHANIN]
inhibition at 72 h, 300 ug/plate [4]: < 20% | inhibition at 72 h, 600 ug/plate [6]: < 20% | inhibition (INH) [14]: 57%

CC(C)=CCc1c(O)ccc(C(=O)/C=C/c2ccc(O)cc2)c1O [ISOBAVACHALCONE]
inhibition at 72 h, 300 ug/plate [4]: > 90% | inhibition at 72 h, 600 ug/plate [6]: > 90% | inhibition (INH) [14]: 86%

COc1ccc(-c2cc(=O)c3c(OC)c(OC)c(OC)c(OC)c3o2)cc1 [TANGERETIN]
inhibition at 72 h, 300 ug/plate [4]: < 20% | inhibition at 72 h, 600 ug/plate [6]: 50% | inhibition (INH) [14]: 42%

COc1ccc(-c2coc3cc(O)ccc3c2=O)cc1 [FORMONONETIN]
inhibition (INH) [14]: 0%

C[C@@H]1O[C@@H](OC[C@H]2O[C@@H](Oc3c(-c4ccc(O)c(O)c4)oc4cc(O)cc(O)c4c3=O)[C@H](O)[C@@H](O)[C@@H]2O)[C@H](O)[C@H](O)[C@H]1O [RUTIN]
inhibition at 72 h, 300 ug/plate [4]: < 20% | inhibition at 72 h, 600 ug/plate [6]: < 20% | inhibition (INH) [14]: 0%

CC(C)=CCc1cc(-c2coc3cc(O)ccc3c2=O)ccc1O [NEOBAVAISOFLAVONE]
inhibition (INH) [1]: 2% | inhibition (INH) [2]: 72% | inhibition (INH) [3]: 74% | inhibition at 72 h, 300 ug/plate [4]: > 90% | inhibition (INH) [5]: 97% | inhibition at 72 h, 600 ug/plate [6]: > 90% | inhibition (INH) [7]: 96% | inhibition (INH) [8]: 66% | inhibition (INH) [9]: 17% | inhibition (INH) [10]: 98% | inhibition (INH) [11]: 67% | inhibition (INH) [12]: 15% | inhibition (INH) [13]: 53% | inhibition (INH) [14]: 97%

O=c1c(O)c(-c2ccccc2)oc2cc(O)cc(O)c12 [GALANGIN]
inhibition (INH) [14]: 97%

COc1cc(O)c2c(=O)c(O)c(-c3ccc(O)c(O)c3)oc2c1 [RHAMNETIN]
inhibition (INH) [1]: 11% | inhibition (INH) [2]: 52% | inhibition (INH) [3]: 45% | inhibition (INH) [9]: 7% | inhibition (INH) [10]: 0% | inhibition (INH) [11]: 0% | inhibition (INH) [12]: 34% | inhibition (INH) [13]: 41% | inhibition (INH) [14]: 78%
